# Measured values: patent US20050250801A1, “Method of treating cancer with azaspirane compositions” (priority 2003, published 2005)
# Read-outs that look alike come from different tables or passages of the source.
# How the values were obtained:
# [1] = system: chorioallantoic membrane (CAM); assay: Anti-angiogenesis CAM assay; format: in vivo, White Leghorn eggs; settings: 48 hour exposure, ten eggs
# Procedure: The dosing was effected by pipetting 40 μl of the indicated solution onto a 13 mm round Thermanox® coverslip and allowing it to air dry. After the material appeared dry, the coverslip was placed onto the chorioallantoic membrane (CAM) of each egg insuring contact of the dried test article with the CAM. After dosing, the eggs were returned to the incubator for approximately 48 hours. Following the 48 hour exposure period, the eggs were removed from the incubator, observed for viability, and the exposed area under the coverslip was examined for loss of vasculature.
# HUVEC = HUVEC cord formation assay (Matrigel); format: cell-based; settings: Homo sapiens, 24 hour incubation, read-out: IC50 Concentration, Cord Formation
# Procedure: Matrigel (60 μl of 10 mg/ml; Collaborative Lab # 35423) was placed in each well of an ice-cold 96-well plate. The plate is allowed to sit at room temperature for 15 minutes then incubated at 37° C. for 30 minutes to permit the matrigel to polymerize. In the mean time, HUVEC are prepared in EGM-2 (Clonetic# CC3162) at a concentration of 2×10^5 cells/ml. Test solutions of Compound I are prepared at 2× the desired concentration (5 concentration levels) in the same medium. The cells (500 μl) and 2× Compound 1 (500 μl) solution are mixed and 200 μl of this suspension are placed in duplicate on the polymerized matrigel. After a 24 hour incubation, triplicate pictures are taken for each concentration using a Bioquant Image Analysis system. Drug effect (IC50) is assessed compared to untreated controls by measuring the length of cords formed and number of junctions, and is reported in Table 8.
# Various Tumor Cell Lines = assay: NCI in vitro SRB tumor cell line assay, panel summary; format: cell-based
# Procedure: (§1) An in vitro assay which tested the ability of N,N,-diethyl-8,8-dipropyl-2-azaspiro[4,5]decane-2-propanamine dimaleate (Compound 1) to inhibit the growth of known cancer cell lines was performed by the National Cancer Institute in accordance with standard procedures. See: Lin, Z. X., Hoult, J. R., and Raman, A. Sulphorhodamine B assay for measuring proliferation of a pigmented melanocyte cell line and its application to the evaluation of crude drugs used in the treatment of vitiligo. J Ethnopharmacol. 66: 141-150, 1999. Briefly, selected tumor cell lines were cultured in media containing five different concentrations of Compound 1. After 48 hours of continuous exposure, a sulforhodamine B (SRB) assay was used to estimate cell viability or growth via optical measurements.
# (§2) From the measurements, the following values were determined: 1) the concentration of Compound 1 at which a tumor cell growth inhibition of 50% (relative to control) occurs (GI50), 2) the concentration of Compound 1 at which no growth occurs (total growth inhibition, TGI), and 3) the concentration of Compound 1 at which the […] (LC 50). […] FIG. 6 illustrates, graphically, tumor cell growth as a function of Compound 1 concentration of the scanned tumor cell lines.
# SF-268 = assay: NCI in vitro SRB assay, CNS Cancer; format: cell-based; settings: for CC50 / GI50: Homo sapiens
# Procedure: as §1, §2
# SF-295 = assay: NCI in vitro SRB assay, CNS Cancer; format: cell-based; settings: for CC50 / GI50: Homo sapiens
# Procedure: as §1, §2
# SF-539 = assay: NCI in vitro SRB assay, CNS Cancer; format: cell-based; settings: for GI50: Homo sapiens
# Procedure: as §1, §2
# U251 = assay: NCI in vitro SRB assay, CNS Cancer; format: cell-based; settings: for CC50 / GI50: Homo sapiens; for GI50: U-251
# Procedure: as §1, §2
# [2] = SF-268, Log10 conc -4.0 Moles/L
# [3] = SF-268, Log10 conc -5.0 Moles/L
# [4] = SF-268, Log10 conc -6.0 Moles/L
# [5] = SF-268, Log10 conc -7.0 Moles/L
# [6] = SF-268, Log10 conc -8.0 Moles/L
# [7] = SF-295, Log10 conc -4.0 Moles/L
# [8] = SF-295, Log10 conc -5.0 Moles/L
# [9] = SF-295, Log10 conc -6.0 Moles/L
# [10] = SF-295, Log10 conc -7.0 Moles/L
# [11] = SF-295, Log10 conc -8.0 Moles/L
smiles,measurement,setting,value
"CCCC1(CCC)CCC2(CCN(CCCN(CC)CC)C2)CC1.O=C(O)/C=C\C(=O)O.O=C(O)/C=C\C(=O)O [Compound 1, N,N,-diethyl-8,8-dipropyl-2-azaspiro[4,5]decane-2-propanamine dimaleate]",Dead Eggs,[1]; Dose per egg 25 μg (0.625 mg/ml),0
same,Dead Eggs,[1]; Dose per egg 50 μg (1.25 mg/ml),0
same,Dead Eggs,[1]; Dose per egg 100 μg,4
same,Dead Eggs,[1]; Dose per egg 200 μg (5 mg/ml),3
same,Dead Eggs,[1]; Dose per egg 400 μg (10 mg/ml),7
same,IC50,HUVEC,2630 nM
same,"Log10 GI50, MG_MID",Various Tumor Cell Lines; all cell lines of Table 2,−5.93
same,"Log10 TGI, Delta",Various Tumor Cell Lines; all cell lines of Table 2,1.18
same,"Log10 TGI, MG_MID",Various Tumor Cell Lines; all cell lines of Table 2,−5.45
same,"Log10 TGI, Range",Various Tumor Cell Lines; all cell lines of Table 2,2.62
same,CC50,"Various Tumor Cell Lines; read-out: Log10 LC50, MG_MID (converted)",8710 nM
same,CC50,"SF-268; SF-268, read-out: LC50",5800 nM
same,CC50,"SF-268; SF-268, read-out: Log10 LC50 (converted)",5750 nM
same,GI50,"SF-268; SF-268, read-out: GI50",1430 nM
same,GI50,"SF-268; SF-268, read-out: Log10 GI50 (converted)",1450 nM
same,Log10 TGI,SF-268; SF-268,−5.54
same,TGI,SF-268; SF-268,2880 nM
same,Mean Optical Densities,SF-268; [2],0.058
same,Percent Growth,SF-268; [2],−80%
same,Mean Optical Densities,SF-268; [3],0.033
same,Percent Growth,SF-268; [3],−89%
same,Mean Optical Densities,SF-268; [4],1.004
same,Percent Growth,SF-268; [4],75%
same,Mean Optical Densities,SF-268; [5],1.181
same,Percent Growth,SF-268; [5],94%
same,Mean Optical Densities,SF-268; [6],1.193
same,Percent Growth,SF-268; [6],95%
same,CC50,"SF-295; SF-295, read-out: LC50",8210 nM
same,CC50,"SF-295; SF-295, read-out: Log10 LC50 (converted)",8130 nM
same,GI50,"SF-295; SF-295, read-out: GI50",1930 nM
same,GI50,"SF-295; SF-295, read-out: Log10 GI50 (converted)",1950 nM
same,Log10 TGI,SF-295; SF-295,−5.40
same,TGI,SF-295; SF-295,3980 nM
same,Mean Optical Densities,SF-295; [7],0.239
same,Percent Growth,SF-295; [7],−57%
same,Mean Optical Densities,SF-295; [8],0.202
same,Percent Growth,SF-295; [8],−64%
same,Mean Optical Densities,SF-295; [9],1.520
same,Percent Growth,SF-295; [9],96%
same,Mean Optical Densities,SF-295; [10],1.653
same,Percent Growth,SF-295; [10],109%
same,Mean Optical Densities,SF-295; [11],1.614
same,Percent Growth,SF-295; [11],105%
same,Log10 TGI,SF-539,−5.50
same,TGI,SF-539,3130 nM
same,GI50,SF-539; read-out: GI50,1570 nM
same,GI50,SF-539; read-out: Log10 GI50 (converted),1580 nM
same,Mean Optical Densities,SF-539; Log10 conc -4.0 Moles/L,0.033
same,Percent Growth,SF-539; Log10 conc -4.0 Moles/L,−89%
same,Mean Optical Densities,SF-539; Log10 conc -5.0 Moles/L,0.050
same,Percent Growth,SF-539; Log10 conc -5.0 Moles/L,−84%
same,Mean Optical Densities,SF-539; Log10 conc -6.0 Moles/L,0.559
same,Percent Growth,SF-539; Log10 conc -6.0 Moles/L,83%
same,Mean Optical Densities,SF-539; Log10 conc -7.0 Moles/L,0.612
same,Percent Growth,SF-539; Log10 conc -7.0 Moles/L,100%
same,Mean Optical Densities,SF-539; Log10 conc -8.0 Moles/L,0.591
same,Percent Growth,SF-539; Log10 conc -8.0 Moles/L,93%
same,CC50,"U251; U-251, read-out: LC50",4690 nM
same,CC50,"U251; U-251, read-out: Log10 LC50 (converted)",4680 nM
same,GI50,"U251; U251, read-out: GI50",1030 nM
same,GI50,"U251; U251, read-out: Log10 GI50 (converted)",1020 nM
same,Log10 TGI,U251; U251,−5.66
same,TGI,U251; U251,2200 nM
same,Mean Optical Densities,"U251; U251, Log10 conc -4.0 Moles/L",−0.042
same,Percent Growth,"U251; U251, Log10 conc -4.0 Moles/L",−100%
same,Mean Optical Densities,"U251; U251, Log10 conc -5.0 Moles/L",−0.049
same,Percent Growth,"U251; U251, Log10 conc -5.0 Moles/L",−100%
same,Mean Optical Densities,"U251; U251, Log10 conc -6.0 Moles/L",0.602
same,Percent Growth,"U251; U251, Log10 conc -6.0 Moles/L",52%
same,Mean Optical Densities,"U251; U251, Log10 conc -7.0 Moles/L",0.864
same,Percent Growth,"U251; U251, Log10 conc -7.0 Moles/L",88%
same,Mean Optical Densities,"U251; U251, Log10 conc -8.0 Moles/L",0.885
same,Percent Growth,"U251; U251, Log10 conc -8.0 Moles/L",90%
